Laboratory results as given in patent publication US11958868B2, “Methods of using metal complexes to promote wound healing” (University of Macau, priority 2022, dated 2024).

Legend:
[1] = ICP-MS analysis of iridium in skin samples; type: in vivo; conditions: dosed STZ and HFD/STZ mice
[2] = system: HIF-1α activation of the HRE-driven reporter; assay: Dual luciferase reporter assay (HRE-driven luciferase activity); type: cell-based, Human; conditions: HEK293 cells, 8 h
Experimental: A library of cyclometalated Ir(III)/Rh(III) metal complexes 1-14 (as racemates) with diverse structures were selected for initial screening, in order to identify favorable substructures for the design of the next round of complexes (FIG. 1a). In cells, HIF-1α moves into the nucleus and binds to the hypoxia-response element (HRE) in the promoters of transactivated genes. In this study, the dual luciferase reporter assay (DLR) was performed to monitor the variations of HRE-driven luciferase activity induced by the complexes (FIG. 1f). Human embryonic kidney HEK293 cells were treated with complexes (10 μM) for 8 h, and the HRE-driven luciferase activity of the cell lysates was determined. Complexes that inhibit the interaction between VHL and HIF-1α would be expected to increase the level of HRE-driven luciferase activity in the cell lysates.
HEK293 cells were seeded in six well plates 24 h before transfection. HRE-luciferase plasmid (4 μg) and pRL-TK plasmid (4 μg) and TurboFect reagent (6 μL) were mixed together in serum-free DMEM medium and the resulting solution was incubated for 20 min at room temperature. The mixture was the added dropwise to the HEK293 cells in the wells. The cells were incubated for 32 h at 37° C. in a CO2 incubator before use.
The inhibition of HIF-1α activity was assayed by a reporter assay using a dual luciferase reporter assay system (Promega, Madison, WI, USA). Transiently transfected cells were treated with complexes or P1 for 8 h before measurement. Luciferase activity was integrated over a 10 second period and measured using a spectrophotometer (Spectra-max M5, Molecular Devices, USA). The results were standardization with the activity of Renilla luciferase. All data are expressed as means±SD.

[3] = system: full-thickness skin wounds in WT/NC mice; assay: Skin wound model in normal (WT/NC) mice; type: in vivo
Description: The mice were maintained for 3 days. […] All experiments complied with all relevant ethical regulations.
Mice were anesthetized by inhalation of 3% isoflurane.

[4] = target: T1, human recombinant VHL:ElonginB:ElonginC (VBC) complex (Homo sapiens, UniProt P40337); assay: Isothermal titration calorimetry (ITC); type: binding
T1 construct: made in house
Experimental: HEK293 cells were treated with vehicle DMSO (1% for 2 h), 1a (0.3, 1, 3, 6 and 9 μM for 2 h), VH298 (100 μM for 2 h), MG132 (20 μM for 3 h), or FG-4592 (100 μM for 2 h) before lysis. Cell lysates were collected and incubated with VHL antibody overnight at 4° C. The proteins were immunoprecipitated using agarose beads. The levels of hydroxy-HIF-1α co-precipitated with VHL were detected using a hydroxy-HIF-1α antibody, and then visualized using ECL Western Blotting Detection Reagent (GE Healthcare). (B) Cellular thermal shift assays to monitor cellular target engagement of VHL and HIF-1α. HEK293 cell lysates were treated with 1a (3 μM) at room temperature for 30 min and then heated at different temperature ranging from 48° C. to 68° C. for 5 min. The protein samples were collected and detected by Western blotting using either VHL or PHD2 antibodies. (C) Fluorescence-based protein thermal shift assay of VBC in the presence or absence of VH298 (100 μM) and complex 1a (100 μM). (D) ITC titration of complex 1a (300 μM) into recombinant VHL protein (30 μM). ITC experiments were carried in a MicroCal PEAQ-ITC Isothermal Titration Calorimeter (Malvern Panalytical). […] (F) Biolayer interferometry (BLI) kinetic analysis of the interaction between complex 1a and VBC. VBC was surface-immobilized to Ni-NTA biosensors. […] Data are expressed as means±SD (n=3 independent experiments for figures a and b, samples for figures c and e), P values were calculated using a two-sided t-test. *P<0.05, **P<0.01 vs. DMSO group.
(§1) After incubating HEK293 cell lysates with complex 1a followed by heating to set temperatures, VHL and PHD2 levels in the soluble fraction were quantitated by Western blotting.

[5] = target: T1, human recombinant VHL:ElonginB:ElonginC (VBC) complex; assay: Competitive fluorescence polarization binding assay
[6] = target: T1, human recombinant VHL:ElonginB:ElonginC (VBC) complex; assay: Fluorescence-based protein thermal shift assay (FTS) of VBC; type: binding; conditions: 100 μM
Experimental: HEK293 cells were treated with vehicle DMSO (1% for 2 h), 1a (0.3, 1, 3, 6 and 9 μM for 2 h), VH298 (100 μM for 2 h), MG132 (20 μM for 3 h), or FG-4592 (100 μM for 2 h) before lysis. Cell lysates were collected and incubated with VHL antibody overnight at 4° C. The proteins were immunoprecipitated using agarose beads. The levels of hydroxy-HIF-1α co-precipitated with VHL were detected using a hydroxy-HIF-1α antibody, and then visualized using ECL Western Blotting Detection Reagent (GE Healthcare). (B) Cellular thermal shift assays to monitor cellular target engagement of VHL and HIF-1α. HEK293 cell lysates were treated with 1a (3 μM) at room temperature for 30 min and then heated at different temperature ranging from 48° C. to 68° C. for 5 min. The protein samples were collected and detected by Western blotting using either VHL or PHD2 antibodies. (C) Fluorescence-based protein thermal shift assay of VBC in the presence or absence of VH298 (100 μM) and complex 1a (100 μM). […] Data are expressed as means±SD (n=3 independent experiments for figures a and b, samples for figures c and e), P values were calculated using a two-sided t-test. *P<0.05, **P<0.01 vs. DMSO group.
as §1

VHL-HIF-1α interaction = target: T2, VHL-HIF-1α interaction (Homo sapiens, UniProt P40337); assay: Co-immunoprecipitation of hydroxy-HIF-1α with VHL in HEK293 cells; type: cell-based; conditions: HEK293 cells, 0.3, 1, 3, 6 and 9 μM for 2 h
T2 construct: endogenous in cells; host or cells: HEK293
Experimental: HEK293 cells were treated with vehicle DMSO (1% for 2 h), 1a (0.3, 1, 3, 6 and 9 μM for 2 h), VH298 (100 μM for 2 h), MG132 (20 μM for 3 h), or FG-4592 (100 μM for 2 h) before lysis. Cell lysates were collected and incubated with VHL antibody overnight at 4° C. The proteins were immunoprecipitated using agarose beads. The levels of hydroxy-HIF-1α co-precipitated with VHL were detected using a hydroxy-HIF-1α antibody, and then visualized using ECL Western Blotting Detection Reagent (GE Healthcare). (B) Cellular thermal shift assays to monitor cellular target engagement of VHL and HIF-1α. HEK293 cell lysates were treated with 1a (3 μM) at room temperature for 30 min and then heated at different temperature ranging from 48° C. to 68° C. for 5 min. The protein samples were collected and detected by Western blotting using either VHL or PHD2 antibodies. (C) Fluorescence-based protein thermal shift assay of VBC in the presence or absence of VH298 (100 μM) and complex 1a (100 μM). (D) ITC titration of complex 1a (300 μM) into recombinant VHL protein (30 μM). ITC experiments were carried in a MicroCal PEAQ-ITC Isothermal Titration Calorimeter (Malvern Panalytical). […] Data are expressed as means±SD (n=3 independent experiments for figures a and b, samples for figures c and e), P values were calculated using a two-sided t-test. *P<0.05, **P<0.01 vs. DMSO group. […]

VHL = VHL (Homo sapiens, UniProt P40337); assay: Binding affinity to VHL compared with VH298; conditions: complex 1a vs VH298
[7] = target: T1, human recombinant VHL:ElonginB:ElonginC (VBC) complex; assay: Circular dichroism of VBC complex; type: binding; conditions: 3 μM in 1% DMSO

Structure (SMILES): COc1cc[n+]2c3c1ccc1c(OC)cc[n+](c13)[Ir-3]213([c]2ccccc2-c2cccc[n+]21)[c]1ccccc1-c1cccc[n+]13.F[P-](F)(F)(F)(F)F [1a]
- Iridium in skin samples (ICP-MS) [1]: confirmed the presence of iridium in skin samples
- HRE-driven luciferase activity compared to positive control P1 (and parent complex 1) [2]: about twice as potent as both the parent complex 1 as well as the positive control compound P1
- HRE-driven luciferase activity, second round of screening ([2]; complexes 1a-1n, ranking and comparison in words): highest activation of HRE-drive luciferase activity
- Dose-response of HRE-driven luciferase activity ([2]; indicated concentrations): dose-dependent activation of HRE-driven luciferase activity
- Rate of wound closure, NC mice, 4 days ([3]; NC, 1.25 mg/kg i.p., 4 days): ~65%
- Rate of wound closure, WT mice, 4 days ([3]; WT, 0.25 mg/mL topical, 4 days): about 64%
- Wound closure, WT/NC mice, 8 days ([3]; WT/NC, 8 days): almost complete wound closure
- ΔG (ITC) [4]: -8.14 kcal/mol
- ΔH (ITC) [4]: -7.85 kcal/mol
- −TΔS (ITC) [4]: -0.29 kcal/mol
- Kd ([4]; 300 μM complex titrated into 30 μM VBC, 25° C.): 1080 ± 200 nM
- IC50 ([5]; 125 nM fluorescent peptide and 450 nM VBC, four-parameter logistic equation): 3790 nM
- Kd ([5]; displacement of FAM-DEALAHyp-YIPD from VBC): 2060 nM
- Shift of the melting curve of purified VBC (FTS) [6]: ca. 3.0 °C
- Amount of HIF-1α-OH co-precipitating with VHL (VHL-HIF-1α interaction): reduced the amount of HIF-1α-OH co-precipitating with VHL in a dose-dependent manner
- Binding affinity, lower than that of VH298 (VHL): around 100 fold
- Circular dichroism signal of VBC complex [7]: distinct shift of the signal
